Assay results taken from article PMC8156151 (The European Respiratory Journal, 2021).
Read-outs that look alike come from different tables or passages of the source.

Tests used:
Type in all cases: in vivo, human
[1] = Plasma pharmacokinetics, part 2 (IPF patients); conditions: for Cmin (plasma concentration at 24 h post-dose): BLQ: below limit of quantification (0.5 ng·mL^−1); for half-life / Cmax / concentration at 24 h / AUC(0-inf): human, plasma, inhaled; for concentration at 24 h: read-out: Cmin (plasma concentration at 24 h post-dose)
Experimental: Full plasma PK profiles were conducted on days 1 (first day of dosing) and 14 (last day of dosing). […] Standard noncompartmental methods were applied to derive PK parameters using Phoenix WinNonlin version 6.3 (Certara, Sheffield, UK). […] Drug compartment measurements in BAL alveolar macrophages and fluid were determined as described previously.

PDGF-BB = test: Plasma biomarker PDGF-BB (Luminex/ELISA); conditions: for PDGF-BB raw data, Mean (SD) / PDGF-BB least square means % baseline±SEM: IPF patients
Experimental: (§1) All patients, investigators, sites and study sponsor personnel were blinded to the study group assignments throughout the study. Patients underwent study-specific assessments on days 2, 3, 7, 14 and 15, and a post-study assessment was carried out 26–30 days after the last day of the study period. Assessments included vital signs (supine blood pressure, pulse, oxygen saturation, oral temperature and respiratory rate), spirometry, 12-lead ECG, physical examination, laboratory safety screen (haematology, biochemistry, urinalysis and urinary drugs of abuse screen) and blood sampling for PK measurements. All adverse events and concomitant medications were recorded from the time of the screening visit until the post-study follow-up visit. BAL was performed at day −1 (24 h before the first dose) and at day 14 (2 h after the last dose). The BAL procedure was performed as per international guidelines. Briefly, 240 mL of 0.9% saline at room temperature was instilled in 40 mL aliquots into the right middle lobe and aspirated by suction after each aliquot.
(§2) BAL cells were separated from fluid by centrifugation, and cells were collected, stained with antibodies (supplementary material) and then fixed before analysis using a LSR Fortessa flow cytometer (Becton Dickinson, Franklin Lakes, NJ, USA). Data were analysed using FlowJo software (Tree Star, Ashland, OR, USA). Macrophages were identified as having high side scatter properties and human leukocyte antigen-DR positivity. Gal-3 expression (mean fluorescence intensity) was determined from the macrophage gate (supplementary figures S1 and S2). […] Samples were analysed by magnetic Luminex assay (R&D Systems, Minneapolis, MN, USA) or ELISA.
(§3) For part 2 of the study, placebos were combined from the three dose-specific cohorts into a pooled control group (n=9). For alveolar macrophage Gal-3 expression and the plasma biomarkers, ANCOVA was performed for percentage of baseline ((day 14/day 1)×100). The ANCOVA model included effects for treatment group and baseline (day 1) value. […] An additional analysis including dose as a continuous covariate was also performed. The Pearson correlation coefficient (r) and associated p-value were calculated for percentage of baseline and day 14 values between plasma biomarkers and alveolar macrophage Gal-3 expression. […] The analysis is exploratory and there was no pre-planned adjustment for multiple testing; the study was not powered for this. Alveolar macrophage Gal-3 expression was considered the primary exploratory analysis with the pre-selected biomarkers secondary. A Bonferroni correction for multiple testing of the secondary end-points comparing the 10 mg group with placebo gives a critical value of 0.0063. Data are presented as the difference in least square means with 95% confidence interval and p-value unless otherwise stated. All analyses were performed using SAS version 9.4 (SAS Institute, Cary, NC, USA). […]

CCL5 (RANTES) = test: Plasma biomarker CCL5; conditions: for CCL5 (RANTES) raw data, Mean (SD) / CCL5 (RANTES) least square means % baseline±SEM: IPF patients
Experimental: as §1, §2, §3

IL-1ra = test: Plasma biomarker IL-1ra; conditions: for IL-1ra raw data, Mean (SD) / IL-1ra least square means % baseline±SEM: IPF patients
Experimental: as §1, §2, §3

[2] = IPF patients, after 14 days of dosing
[3] = 3 mg, IPF patients, Day 1, 3 mg once daily, mean±SD
[4] = 3 mg, IPF patients, Day 14, 3 mg once daily, mean±SD
[5] = 10 mg, IPF patients, Day 1, 10 mg once daily, mean±SD
[6] = 10 mg, IPF patients, Day 14, 10 mg once daily, mean±SD

## OC[C@H]1O[C@@H](S[C@@H]2O[C@H](CO)[C@H](O)[C@H](n3cc(-c4cccc(F)c4)nn3)[C@H]2O)[C@H](O)[C@@H](n2cc(-c3cccc(F)c3)nn2)[C@H]1O [TD139]
[1]; IPF patients, Day 1, 0.3 mg once daily
  Cmin (plasma concentration at 24 h post-dose): BLQ
[1]; IPF patients, Day 14, 0.3 mg once daily
  Cmin (plasma concentration at 24 h post-dose): BLQ
[1]; [2]
  accumulation: ~50%
  increase in AUC0−inf, 10 mg values: 8 fold
  increase in Cmax, 10 mg values: 5 fold
[1]; from T1/2 of ∼8 h and dosing interval of 24 h
  expected accumulation: ~14%
[1]; inhaled or intranasal, overall value, read-out: plasma half-life (T1/2) (converted)
  half-life: 8 h
[1]; 0.3 mg, IPF patients, Day 1, 0.3 mg once daily, mean±SD
  Cmax: 0.55 ± 0.02 ng/mL
[1]; 0.3 mg, IPF patients, Day 14, 0.3 mg once daily, mean±SD
  Cmax: 0.86 ± 0.25 ng/mL
[1]; [3]
  concentration at 24 h: 1.06 ± 0.43 ng/mL
  AUC(0-inf): 69 ± 50 ng·h/mL
  Cmax: 10.6 ± 11.1 ng/mL
[1]; [4]
  concentration at 24 h: 1.48 ± 0.51 ng/mL
  AUC(0-inf): 149 ± 47 ng·h/mL
  Cmax: 16.5 ± 8.34 ng/mL
[1]; 3 mg, IPF patients, Day 1, 3 mg once daily, mean±SD, read-out: T1/2 (converted)
  half-life: 6.36 ± 2.09 h
[1]; 3 mg, IPF patients, Day 14, 3 mg once daily, mean±SD, read-out: T1/2 (converted)
  half-life: 6.91 ± 1.4 h
[1]; [5]
  concentration at 24 h: 12.9 ± 7.88 ng/mL
  AUC(0-inf): 921 ± 479 ng·h/mL
  Cmax: 56.3 ± 19.3 ng/mL
[1]; [6]
  concentration at 24 h: 14.7 ± 8.64 ng/mL
  AUC(0-inf): 1150 ± 462 ng·h/mL
  Cmax: 82.8 ± 11.8 ng/mL
[1]; 10 mg, IPF patients, Day 1, 10 mg once daily, mean±SD, read-out: T1/2 (converted)
  half-life: 9.69 ± 1.7 h
[1]; 10 mg, IPF patients, Day 14, 10 mg once daily, mean±SD, read-out: T1/2 (converted)
  half-life: 8.2 ± 2.26 h
PDGF-BB; 10 mg vs placebo, ANCOVA
  PDGF-BB difference in least square means % baseline (95% CI): −239.5 (−384.8– −94.2) % baseline
PDGF-BB; Day 14, 0.3 mg
  PDGF-BB raw data, Mean (SD): 1519 (1034.92) pg/ml
PDGF-BB; Day 14, 3 mg
  PDGF-BB raw data, Mean (SD): 2201.9 (2935.52) pg/ml
PDGF-BB; Day 14, 10 mg
  PDGF-BB raw data, Mean (SD): 1131.4 (1190.78) pg/ml
PDGF-BB; day 14, 0.3 mg once daily
  PDGF-BB least square means % baseline±SEM: 90.5±55.2 % baseline
PDGF-BB; day 14, 3 mg once daily
  PDGF-BB least square means % baseline±SEM: 103.7±54.1 % baseline
PDGF-BB; day 14, 10 mg once daily
  PDGF-BB least square means % baseline±SEM: 35.7±54.2 % baseline
CCL5 (RANTES); 10 mg vs placebo, ANCOVA
  CCL5 (RANTES) difference in least square means % baseline (95% CI): −54.1 (−147–38.8) % baseline
CCL5 (RANTES); Day 14, 0.3 mg
  CCL5 (RANTES) raw data, Mean (SD): 47658.1 (27017.8) pg/ml
CCL5 (RANTES); Day 14, 3 mg
  CCL5 (RANTES) raw data, Mean (SD): 75675.6 (92820.57) pg/ml
CCL5 (RANTES); Day 14, 10 mg
  CCL5 (RANTES) raw data, Mean (SD): 33994.2 (29435.9) pg/ml
CCL5 (RANTES); day 14, 0.3 mg once daily
  CCL5 (RANTES) least square means % baseline±SEM: 62.3±37.1 % baseline
CCL5 (RANTES); day 14, 3 mg once daily
  CCL5 (RANTES) least square means % baseline±SEM: 115.1±35.1 % baseline
CCL5 (RANTES); day 14, 10 mg once daily
  CCL5 (RANTES) least square means % baseline±SEM: 75.8±35.8 % baseline
IL-1ra; 10 mg vs placebo, ANCOVA
  IL-1ra difference in least square means % baseline (95% CI): 6.0 (−47.5–59.4) % baseline
IL-1ra; Day 14, 0.3 mg
  IL-1ra raw data, Mean (SD): 548.3 (279.69) pg/ml
IL-1ra; Day 14, 3 mg
  IL-1ra raw data, Mean (SD): 709.8 (338.05) pg/ml
IL-1ra; Day 14, 10 mg
  IL-1ra raw data, Mean (SD): 1992.9 (2627.15) pg/ml
IL-1ra; day 14, 0.3 mg once daily
  IL-1ra least square means % baseline±SEM: 93.2±20.3 % baseline
IL-1ra; day 14, 3 mg once daily
  IL-1ra least square means % baseline±SEM: 98.7±20.2 % baseline
IL-1ra; day 14, 10 mg once daily
  IL-1ra least square means % baseline±SEM: 98.0±20.8 % baseline
